Measurements published in paper PMC6988596 (Chemical Science, 2019).

Molecular target: LeuS (Escherichia coli, UniProt P07813)
Assay: HAMA hydroxamate LC-MS/MS competition assay
Type: biochemical
Settings: amino acid mixture

CC(C)C[C@H](N)C(=O)O [L-Leu]
HAMA hydroxamate LC-MS/MS competition assay: all three specificities were correctly identified and almost no side-activities detected
